Test results: PMC8910920 (International Journal of Molecular Sciences, 2022)
Read-outs that look alike come from different tables or passages of the source.

Columns and labels:
rTRPM8 [1] = molecular target: T1, rTRPM8 (Rattus norvegicus, UniProt Q8R455); set-up: method as in PMID 32843690; conditions: reference antagonist value; ref [31]; read-out: rTRPM8 IC50, Ca2+ microfluorography; cited from earlier work
T1 construct: expressed in transfected cells

rTRPM8 [2] = molecular target: T1, rTRPM8; experiment: Ca2+ microfluorography assay, HEK293 cells expressing rTRPM8, menthol activation; assay type: cell-based; conditions: HEK293-rTRPM8, 100 μM menthol
Method: This represents a similar activity as β–lactam 2 and a somewhat higher potency than the model TRPM8 antagonists AMTB.
To measure the effect of the compounds against TRPM8 activity we used microfluorometry-based calcium flux assays with Fluo-4 NW Ca^2+ dye and fluorescence as described in [30]. Briefly, human embryonic kidney cell line (HEK293) cells stably transfected with rTRPM8 or hTRPM8 were seeded in 96-well plates at a cell density of 30,000 cells. After 2 days the medium was replaced with 100 μL of the dye, Fluo-4 NW, loading solution supplemented with probenecid 2.5 mM and incubated 1 h at 37 °C. The TRPM8 activity was measured using POLASTAR plate reader (BMG Labtech) setting the excitation wavelength at 485 nm and the emission wavelength at 520 nm. The baseline fluorescence was recorded for 3 cycles before the addition of vehicle compound at different concentrations and the antagonist, 10 μM AMTB. Fluorescence intensity was recorded during 7 more cycles and 100 μM menthol was added. Fluorescence intensity was recorded during 10 more cycles.
Data analysis: The Z-factor was calculated in each assay using the following equation: […]. In all the experiments, the Z-factor was ≥0.5. The effect of the compounds against TRPM8 activity was determined by normalizing their effect on the maximum fluorescence observed after application of 100 μM menthol. Decrease in menthol signal was expressed as percentage of inhibition (%). All data are expressed as the mean ± standard deviation (SD). Data are expressed as the concentration exerting a half-maximal inhibition of agonist-induced [Ca^2+]i elevation (IC50), which was calculated again using GraphPad Prism® software. All determinations were performed in triplicate (n = 3) in 3 independent experiments (N = 3).

[3] = system: OXA-induced cold hypersensitivity in male mice; set-up: method as in PMID 32843690; conditions: ref [31]; cited from earlier work
rTRPM8 [4] = molecular target: T1, rTRPM8; experiment: Whole-cell patch-clamp, HEK293-rTRPM8 cells; assay type: cell-based; conditions: HEK293-rTRPM8, 100 μM menthol, holding voltage −60 mV
Method: To confirm the antagonistic activity, electrophysiology (patch-clamp) studies were performed on HEK293 cells expressing the rTRPM8 channel. […] Then, using a holding voltage of −60 mV, different concentrations of RGM8-51 were used to establish the concentration/response curve for rTRPM8 current blockade.
Whole-cell patch-clamp recordings from HEK293-rTRPM8 cells were carried out 2 days after seeding on 12 mm Ø glass coverslips treated with poly-L-lysine solution (Sigma Aldrich, Spain); the intracellular pipette solution contained (in mM) 150 NaCl, 5 EGTA, 3 MgCl2 and 10 HEPES, adjusted to pH 7.2 with NaOH, and the extracellular solution contained (in mM) 150 NaCl, 6 CsCl, 1.5 CaCl2, 1 MgCl2, 10 D-glucose and 10 HEPES, adjusted to pH 7.4 with NaOH. The TRPM8 activity was measured by the application of two pulses of 100 μM menthol in a time interval of 2 min and a 30 s perfusion of the different compound concentrations before the second menthol pulse.
Data were sampled at 10 kHz (EPC10 amplifier with PatchMaster 2.53 software, HEKA Electronics, Lambrecht, Germany) and low-pass filtered at 3 kHz for analysis (PatchMaster 2.53 and GraphPad Prism 6.0, Graphpad Software, San Diego, CA, USA). The series resistance was <10 MΩ and to minimize voltage errors was compensated by 60–80%. […] Cell capacitance was measured and used to estimate the current density (J, pA/pF).
Data analysis: For the whole-cell patch-clamp experiments, results are expressed as the percentage of remaining activation of the TRPM8 channel. This is calculated by normalizing the ratio (p2/p1) of testing conditions to the ratio (p2/p1) of the control condition. […] All data are expressed as the mean ± standard error of the mean (SEM) (n = 5–8). In the current-clamp experiments, the change in membrane potential is expressed as the difference between the resting membrane potential and the membrane potential after the addition of a stimuli. Data were analyzed as previously described (GraphPad 6.0, one-way ANOVA followed by Bonferroni multiple comparisons test, and ROUT method, Q = 10%).

CACO-2 cell monolayers = experiment: Caco-2 permeability; assay type: in vitro ADME; conditions: CACO-2 cell monolayer
Method: These studies were subcontracted to Eurofins-CEREP or Eurofins-PANLABS. Briefly, agonists and antagonist assays were performed in cell cultures overexpressing the corresponding channel (CHO: TRPV1 and TRPA1; HEK293: TRPV3 and ASIC3). In vitro pharmacology, cellular channel functional assays: the compound was prepared in assay buffer to the final concentration, 10 μM. The compound wells, reference agonist and background vehicle controls were prepared in DMSO at 0.3%. The reference agonist for each Ion Channel assayed was prepared in a similar manner to serve as the assay control. The reference agonist for each Ion Channel was included at Emax (the concentration where the reference agonist elicited a maximal response). The agonist assay was conducted on fluorimeter instruments where the test compound, vehicle controls, and reference agonist were added to the assay plate after a fluorescence baseline was established. The agonist assay was used to assess each compound’s ability to activate each Ion Channel assayed. For the antagonist assay, the compound was pre-incubated for five minutes at room temperature, and then challenged with the EC80 concentration of the reference agonist after establishment of a fluorescence baseline. Vehicle controls and EC80 concentration of reference agonist were added to appropriate wells. The antagonist assay was used to assess each compound’s ability to inhibit activation by the corresponding Ion Channel agonist. ASIC3 ionflux antagonist assay: all recordings were obtained from a holding potential of -60 mV. The compound addition sequence was as follows: one addition of pH5.5 buffer was added to establish the baseline response, the test concentration of compound was applied for 30 s, followed by the addition of pH5.5 of compound for 2 s. Binding assays were performed in CHO cell cultures overexpressing human CGRPR, CB2 and M2 receptors. RGM8-51 (10 μM) was tested, and reference compounds used as control agonists and antagonists are detailed in Table 2, footnote. Binding assay results are expressed as a percent of control specific binding. […] Aqueous solubility (μM) was determined by comparing the peak area of the principal peak in a calibration standard (200 μM) containing organic solvent (methanol/water, 60/40, v/v) with the peak area of the corresponding peak in a buffer sample. Partition coefficient: the total amount of compound was determined as the peak area of the principal peak in a calibration standard (100 μM) containing organic solvent (methanol/water, 60/40, v/v). The amount of compound in buffer was determined as the combined, volume-corrected, and weighted areas of the corresponding peaks in the aqueous phases of three organic-aqueous samples of different composition. An automated weighting system was used to ensure the preferred use of raw data from those samples with well quantifiable peak signals. The amount of compound in organic phase was calculated by subtraction. Subsequently, Log D was calculated as the Log10 of the amount of compound in the organic phase divided by the amount of compound in the aqueous phase. […] Permeability was measured in CACO-2 monolayers. Percentage of compounds in the receptors wells was measured using HPLC. […] In vitro metabolism was measured in human liver microsomes. […] The apparent intrinsic clearance (CLint, in μL/min/mg) was calculated from the half-life time.

serum proteins = experiment: Protein binding; assay type: in vitro ADME, human

T1 sequence (Q8R455 whole entry): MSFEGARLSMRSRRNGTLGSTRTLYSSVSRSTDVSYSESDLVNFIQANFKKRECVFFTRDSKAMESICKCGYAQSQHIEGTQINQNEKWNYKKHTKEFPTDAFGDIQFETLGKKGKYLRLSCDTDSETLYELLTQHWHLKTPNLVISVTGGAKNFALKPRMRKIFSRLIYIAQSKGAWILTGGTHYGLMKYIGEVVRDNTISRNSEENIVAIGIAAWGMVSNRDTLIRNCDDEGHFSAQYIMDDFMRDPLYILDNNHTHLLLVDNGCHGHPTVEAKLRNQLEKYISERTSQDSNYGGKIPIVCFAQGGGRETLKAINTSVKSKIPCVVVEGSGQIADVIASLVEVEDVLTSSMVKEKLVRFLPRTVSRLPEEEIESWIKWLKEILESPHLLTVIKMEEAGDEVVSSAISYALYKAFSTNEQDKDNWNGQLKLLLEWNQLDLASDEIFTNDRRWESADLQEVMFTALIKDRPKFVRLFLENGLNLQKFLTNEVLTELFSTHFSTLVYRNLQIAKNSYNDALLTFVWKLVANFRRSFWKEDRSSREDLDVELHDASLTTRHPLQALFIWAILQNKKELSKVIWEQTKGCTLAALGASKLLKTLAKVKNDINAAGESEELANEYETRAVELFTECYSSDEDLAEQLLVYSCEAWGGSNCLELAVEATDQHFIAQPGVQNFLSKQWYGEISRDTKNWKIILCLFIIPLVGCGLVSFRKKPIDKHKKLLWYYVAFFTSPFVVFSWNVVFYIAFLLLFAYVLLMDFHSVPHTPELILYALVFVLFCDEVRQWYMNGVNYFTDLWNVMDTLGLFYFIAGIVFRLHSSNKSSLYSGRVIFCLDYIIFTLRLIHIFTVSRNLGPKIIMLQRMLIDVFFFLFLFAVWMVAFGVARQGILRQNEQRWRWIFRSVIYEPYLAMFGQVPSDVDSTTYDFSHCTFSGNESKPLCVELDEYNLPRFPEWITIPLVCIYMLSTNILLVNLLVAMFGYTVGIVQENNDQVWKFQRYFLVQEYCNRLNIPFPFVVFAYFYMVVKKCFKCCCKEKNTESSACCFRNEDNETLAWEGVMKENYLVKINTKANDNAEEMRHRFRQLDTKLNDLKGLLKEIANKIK

Compound: Cc1cccc(COc2ccccc2C(=O)N(CCCN)Cc2cccs2)c1 [AMTB]
- IC50 (rTRPM8 [1]): 7.3 ± 1.5 µM

Compound: C[C@@H]1C(=O)N(C[C@H](Cc2ccccc2)NC(=O)OCc2ccccc2)[C@]1(Cc1ccccc1)C(=O)OCc1ccccc1 [Compound 2, reference compound]
- IC50 (rTRPM8 [2]): 3.1 ± 1.1 µM
- relief of oxaliplatin-induced cold hypersensitivity [3]: significant activity
- IC50 (rTRPM8 [4]): 0.9 ± 1 µM

Compound: CC(C)NCC(O)COc1cccc2ccccc12 (stereo not shown) [Propanolol, reference compound]
- Permeability B-A (%) (CACO-2 cell monolayers): 74%
- Permeability A-B (%) (CACO-2 cell monolayers; percentage of compound in the acceptor cell): 70%

Compound: CC(=O)CC(c1ccccc1)c1c(O)c2ccccc2oc1=O (stereo not shown) [Warfarin, reference compound]
- Binding to proteins (%) (serum proteins): 99%
